Results taken from patent US5612208A, “Ascorbate oxidase, gene encoding the same, process for producing the same, and reagent composition using the same” (Amano Pharmaceutical Co., Ltd., priority 1994, dated 1997).
Read-outs that look alike come from different tables or passages of the source.

What was measured:
[1] = tested on: L-ascorbate oxidase (ASOD) of Eupenicillium brefeldianum APC-9315, purified native enzyme; assay type: biochemical
Description: The relative residual activity of ASOD after incubation with various inhibitors at 37° C. for 2 hours.
(§1) To 0.1 ml of a sample to be assayed is added 0.5 ml of 10 mM Na2 HPO4 and 0.45 ml of 0.2M KH2 PO4 containing 1 mM EDTA, and the mixture is mixed and preincubated at 30° C. for 5 minutes. To the mixture is added 0.05 ml of a 10 mM substrate solution of L-ascorbic acid in 0,001N HCl containing 1 mM EDTA, followed by incubation at 30° C. for 10 minutes. The reaction is stopped by addition of 3.0 ml of 0.2N HCl, and a reduction in absorbance at 245 nm is measured. The amount of ASOD in the sample which decomposes 1 μmol of L-ascorbic acid per 1 minute is taken as one unit.

[2] = tested on: ascorbate oxidase of microorganism of the genus Trichoderma or Mortierella (JP-A-6-209770); conditions: data from JP-A-6-209770; cited from earlier work
[3] = tested on: L-ascorbate oxidase (ASOD) of Eupenicillium brefeldianum APC-9315, purified native enzyme; assay: Michaelis constant (Km) for L-ascorbic acid, spectrophotometry method; assay type: biochemical; conditions: by the spectrophotometry method
Description: (8) Michaelis Constant (Km) for L-Ascorbic Acid
4.9×10^-4 M (by the spectrophotometry method)
as §1

[4] = tested on: ascorbate oxidase (ASO) from spores of Myrothecium verrucaria; conditions: data from Nihon Eiyo-Shokuryo Gakkaishi, 40, (1), 47-51 (1987); read-out: Km (L-Ascorbate); cited from earlier work
[5] = tested on: ascorbate oxidase of microorganism of the genus Trichoderma or Mortierella (JP-A-6-209770); conditions: data from JP-A-6-209770; read-out: Km (L-Ascorbate); cited from earlier work
[6] = tested on: ascorbate oxidase (ASO) of Acremonium sp. HI-25; conditions: data from Biosci. Biotechnol. Biochem., 56 (6), 847-852 (1992) & JP-A-3-236766; cited from earlier work
[7] = tested on: ascorbate oxidase (ASO) from spores of Myrothecium verrucaria; conditions: data from Nihon Eiyo-Shokuryo Gakkaishi, 40, (1), 47-51 (1987); cited from earlier work
[8] = target: T1, ascorbate oxidase (ASO) of cucumber (Cucumis sativus, UniProt P14133); conditions: data from J. Biochem., 64 189 (1968); cited from earlier work
T1 construct: cucumbers (T. Nakamura, N. Makino and Y. Ogura, J. Biochem., Vol. 64, p. 189 (1968)); host or cells: enzyme isolated from cucumbers
T1 sequence (P14133 34-587): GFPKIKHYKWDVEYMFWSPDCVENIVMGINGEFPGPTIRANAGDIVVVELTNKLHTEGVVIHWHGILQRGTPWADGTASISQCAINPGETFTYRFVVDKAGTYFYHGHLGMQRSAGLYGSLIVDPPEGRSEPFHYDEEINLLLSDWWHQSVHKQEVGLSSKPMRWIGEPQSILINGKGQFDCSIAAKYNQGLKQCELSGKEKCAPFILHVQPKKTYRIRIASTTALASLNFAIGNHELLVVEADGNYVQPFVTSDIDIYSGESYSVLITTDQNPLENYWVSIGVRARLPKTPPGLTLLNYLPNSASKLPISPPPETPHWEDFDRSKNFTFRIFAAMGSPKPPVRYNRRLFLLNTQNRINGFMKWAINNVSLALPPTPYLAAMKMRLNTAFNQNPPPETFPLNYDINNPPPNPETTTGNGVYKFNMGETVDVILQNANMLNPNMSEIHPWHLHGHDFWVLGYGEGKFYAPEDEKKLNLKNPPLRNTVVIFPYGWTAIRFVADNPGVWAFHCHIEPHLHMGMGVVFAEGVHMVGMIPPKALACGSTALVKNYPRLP

[9] = incubation with inhibitor at 37° C. for 2 hours, inhibitor concentration not printed

O=C(O)CI [monoiodoacetic acid]
Inhibition by inhibitor [1]: 50% | Inhibition by inhibitor (relative residual activity), in words [1]: inhibited partially | Inhibition by inhibitor, in words [2]: uninhibited

O=C1O[C@H]([C@@H](O)CO)C(O)=C1O [L-Ascorbic Acid, L-ascorbic acid]
Km [3]: 490 µM | Km [4]: 3000 µM | Km [5]: 700 µM

[N-]=[N+]=[N-] [sodium azide]
Inhibition by inhibitor (relative residual activity), in words [1, 9]: not substantially inhibited | Inhibition by inhibitor (relative residual activity), in words ([1]; incubation with inhibitor at 37° C. for 2 hours, inhibitor concentration not printed, listed as Sodium Azide): uninhibited | Inhibition by inhibitor, in words [6]: inhibited | Inhibition by inhibitor, in words [7]: uninhibited | Inhibition by inhibitor, in words [8]: inhibited

O[C@H](CS)[C@H](O)CS (racemic) [dithiothreitol]
Inhibition by inhibitor (relative residual activity), in words [1, 9]: not substantially inhibited
